The record followed here is patent US9295673B2, “Combination of mTOR inhibitors and P13-kinase inhibitors, and uses thereof” (Intellikine LLC, priority 2011, dated 2016).

Molecules are shown by their SMILES. Read-outs that look alike come from different tables or passages of the source. A value given as a limit tells only on which side of the number the result lay.

The term IC50 denotes the concentration that gives 50% inhibition.

The target of one assay is PI3K γ (Homo sapiens, UniProt P48736). The assay can be described thus: PI 3-Kinase (human) HTRF assay, PI3K γ.
Sequence of PI3K γ (P48736 whole entry): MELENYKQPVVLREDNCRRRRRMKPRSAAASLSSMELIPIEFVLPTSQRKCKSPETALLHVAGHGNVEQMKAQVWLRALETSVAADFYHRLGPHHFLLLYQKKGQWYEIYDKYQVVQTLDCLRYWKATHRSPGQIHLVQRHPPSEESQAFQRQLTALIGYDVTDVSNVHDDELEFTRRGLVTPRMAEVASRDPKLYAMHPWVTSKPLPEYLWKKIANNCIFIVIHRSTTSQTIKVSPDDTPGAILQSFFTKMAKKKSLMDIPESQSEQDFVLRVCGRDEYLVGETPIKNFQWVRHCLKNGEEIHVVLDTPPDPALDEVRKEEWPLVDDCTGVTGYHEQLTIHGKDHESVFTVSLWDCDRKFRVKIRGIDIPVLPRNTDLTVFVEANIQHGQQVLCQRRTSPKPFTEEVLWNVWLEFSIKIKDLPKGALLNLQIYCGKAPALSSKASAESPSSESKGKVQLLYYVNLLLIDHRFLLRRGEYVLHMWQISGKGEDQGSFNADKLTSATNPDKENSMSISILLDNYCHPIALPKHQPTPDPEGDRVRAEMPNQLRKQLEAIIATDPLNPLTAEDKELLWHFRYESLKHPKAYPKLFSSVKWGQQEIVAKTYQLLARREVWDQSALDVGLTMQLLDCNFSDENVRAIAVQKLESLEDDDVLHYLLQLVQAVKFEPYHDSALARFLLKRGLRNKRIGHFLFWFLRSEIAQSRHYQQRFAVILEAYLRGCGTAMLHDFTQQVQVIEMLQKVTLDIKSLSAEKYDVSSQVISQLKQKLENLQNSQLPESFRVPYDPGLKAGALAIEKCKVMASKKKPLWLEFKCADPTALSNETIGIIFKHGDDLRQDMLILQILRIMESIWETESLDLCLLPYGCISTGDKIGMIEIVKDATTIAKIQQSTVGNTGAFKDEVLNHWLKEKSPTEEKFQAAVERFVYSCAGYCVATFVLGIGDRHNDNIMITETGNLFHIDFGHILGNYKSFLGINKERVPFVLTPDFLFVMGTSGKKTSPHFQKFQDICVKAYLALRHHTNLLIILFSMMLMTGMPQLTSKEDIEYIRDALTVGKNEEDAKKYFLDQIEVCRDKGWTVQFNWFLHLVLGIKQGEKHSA
The target in the next assay is PI3K δ (Homo sapiens, UniProt O00329). The assay can be described thus: PI 3-Kinase (human) HTRF assay, PI3K δ. A general note: In TR-FRET formats the signal depends on donor and acceptor labels being close together.
Sequence of PI3K δ (O00329 whole entry): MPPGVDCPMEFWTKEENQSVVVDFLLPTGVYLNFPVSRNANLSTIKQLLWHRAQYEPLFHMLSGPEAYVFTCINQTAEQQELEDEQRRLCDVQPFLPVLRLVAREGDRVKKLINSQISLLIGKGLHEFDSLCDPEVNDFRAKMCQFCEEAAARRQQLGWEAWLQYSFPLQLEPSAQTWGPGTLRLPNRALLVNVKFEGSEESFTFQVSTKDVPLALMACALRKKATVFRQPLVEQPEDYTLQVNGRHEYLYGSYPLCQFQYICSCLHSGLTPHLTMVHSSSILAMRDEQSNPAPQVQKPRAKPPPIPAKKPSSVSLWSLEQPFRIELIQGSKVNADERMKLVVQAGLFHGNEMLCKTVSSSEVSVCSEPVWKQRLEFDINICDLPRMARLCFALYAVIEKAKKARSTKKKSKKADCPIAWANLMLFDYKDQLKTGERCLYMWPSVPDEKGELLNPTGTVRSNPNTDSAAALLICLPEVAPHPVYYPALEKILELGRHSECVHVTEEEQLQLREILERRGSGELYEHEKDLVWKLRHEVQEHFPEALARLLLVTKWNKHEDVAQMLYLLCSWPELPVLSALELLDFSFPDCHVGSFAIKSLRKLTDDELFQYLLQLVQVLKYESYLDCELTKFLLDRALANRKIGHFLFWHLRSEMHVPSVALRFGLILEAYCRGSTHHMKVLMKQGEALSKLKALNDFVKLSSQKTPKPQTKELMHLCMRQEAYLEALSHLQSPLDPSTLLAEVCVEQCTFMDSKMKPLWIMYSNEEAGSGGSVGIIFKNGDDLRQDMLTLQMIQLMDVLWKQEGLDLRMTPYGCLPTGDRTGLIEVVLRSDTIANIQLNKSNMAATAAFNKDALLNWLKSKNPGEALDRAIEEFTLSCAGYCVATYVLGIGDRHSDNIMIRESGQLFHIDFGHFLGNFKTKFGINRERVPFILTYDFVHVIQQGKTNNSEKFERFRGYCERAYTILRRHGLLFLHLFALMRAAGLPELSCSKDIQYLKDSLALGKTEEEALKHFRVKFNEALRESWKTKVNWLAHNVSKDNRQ
Sequence of PI3K δ (P27986 whole entry partner): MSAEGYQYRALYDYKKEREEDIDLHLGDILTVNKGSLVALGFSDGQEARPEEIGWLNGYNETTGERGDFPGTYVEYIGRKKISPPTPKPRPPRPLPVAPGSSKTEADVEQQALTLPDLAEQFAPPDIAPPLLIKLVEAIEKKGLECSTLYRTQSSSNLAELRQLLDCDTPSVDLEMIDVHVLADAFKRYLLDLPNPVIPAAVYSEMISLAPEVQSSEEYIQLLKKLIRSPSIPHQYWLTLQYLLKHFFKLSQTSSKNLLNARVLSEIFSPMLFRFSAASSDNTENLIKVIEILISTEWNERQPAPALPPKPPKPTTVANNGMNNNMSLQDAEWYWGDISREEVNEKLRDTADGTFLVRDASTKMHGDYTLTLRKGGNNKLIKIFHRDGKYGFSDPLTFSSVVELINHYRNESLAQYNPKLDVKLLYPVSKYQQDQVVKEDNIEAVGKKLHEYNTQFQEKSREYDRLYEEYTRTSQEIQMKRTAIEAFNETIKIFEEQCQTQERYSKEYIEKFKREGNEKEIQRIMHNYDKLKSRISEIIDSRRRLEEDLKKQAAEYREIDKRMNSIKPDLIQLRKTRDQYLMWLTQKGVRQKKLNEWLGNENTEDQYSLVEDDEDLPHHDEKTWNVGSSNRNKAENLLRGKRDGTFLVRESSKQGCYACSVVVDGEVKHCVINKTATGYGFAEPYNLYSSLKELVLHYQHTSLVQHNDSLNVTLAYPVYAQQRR
In a further assay the target is PI3K β (Homo sapiens, UniProt P42338). The assay can be described thus: PI 3-Kinase (human) HTRF assay, PI3K β. As to conditions: read-out: PI3K β IC50; Table 4.
Sequence of PI3K β (P42338 whole entry): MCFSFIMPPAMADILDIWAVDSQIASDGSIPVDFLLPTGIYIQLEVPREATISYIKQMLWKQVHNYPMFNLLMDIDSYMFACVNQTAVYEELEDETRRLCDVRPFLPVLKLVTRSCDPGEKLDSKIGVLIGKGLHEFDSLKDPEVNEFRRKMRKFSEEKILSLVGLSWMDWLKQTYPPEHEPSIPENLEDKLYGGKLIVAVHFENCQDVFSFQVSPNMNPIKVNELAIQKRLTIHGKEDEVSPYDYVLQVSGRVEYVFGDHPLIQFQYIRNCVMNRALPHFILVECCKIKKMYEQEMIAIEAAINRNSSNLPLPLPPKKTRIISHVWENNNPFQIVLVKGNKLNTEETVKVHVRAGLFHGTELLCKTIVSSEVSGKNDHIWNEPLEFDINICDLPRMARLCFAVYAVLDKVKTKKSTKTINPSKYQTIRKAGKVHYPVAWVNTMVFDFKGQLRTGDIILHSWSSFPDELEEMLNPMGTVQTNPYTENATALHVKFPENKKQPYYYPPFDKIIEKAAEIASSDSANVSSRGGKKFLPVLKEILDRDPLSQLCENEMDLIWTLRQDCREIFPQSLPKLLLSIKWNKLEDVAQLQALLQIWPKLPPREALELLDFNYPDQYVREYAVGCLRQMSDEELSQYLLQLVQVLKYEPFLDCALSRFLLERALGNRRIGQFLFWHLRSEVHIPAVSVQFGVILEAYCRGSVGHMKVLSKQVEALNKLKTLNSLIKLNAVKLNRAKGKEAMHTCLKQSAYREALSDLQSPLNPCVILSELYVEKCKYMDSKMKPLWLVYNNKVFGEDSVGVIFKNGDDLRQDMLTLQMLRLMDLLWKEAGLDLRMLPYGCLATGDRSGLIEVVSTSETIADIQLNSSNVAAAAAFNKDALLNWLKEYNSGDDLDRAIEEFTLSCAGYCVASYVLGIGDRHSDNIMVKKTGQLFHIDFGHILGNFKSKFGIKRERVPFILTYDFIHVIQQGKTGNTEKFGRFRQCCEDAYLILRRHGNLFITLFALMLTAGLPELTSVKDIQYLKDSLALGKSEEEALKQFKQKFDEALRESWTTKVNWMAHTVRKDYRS
Sequence of PI3K β (P27986 whole entry partner): as the sequence (P27986 whole entry partner) above

Procedure for PI3K β: (§1) An exemplary system is PI 3-Kinase (human) HTRF™ Assay from Upstate. […] Briefly, the assay is a time resolved FRET assay that indirectly measures PIP3 product formed by the activity of a PI3-K. The kinase reaction is performed in a microtitre plate (e.g., a 384 well microtitre plate). The total reaction volume is approximately 20 ul per well. In the first step, each well receives 2 ul of test compound in 20% dimethylsulphoxide resulting in a 2% DMSO final concentration. […] The plate is sealed and incubated for 15 minutes at room temperature. […] The plate is sealed and incubated for 1 hour at room temperature. The reaction is stopped by adding 5 ul of Stop Solution per well and then 5 ul of Detection Mix is added per well. The plate is sealed, incubated for 1 hour at room temperature, and then read on an appropriate plate reader. Data is analyzed and IC50s are generated using GraphPad Prism 5.
Procedure for PI3K γ: as §1
Procedure for PI3K δ: as §1

Consider `CN1CCC(Oc2ncnc3ccc(-c4ccc5oc(N)nc5c4)cc23)CC1` [Compound 34], for which, on PI3K γ (read-out: PI3K γ IC50), the IC50 is less than 0.1 µM.

Regarding `CC(N)C(=O)N1CCN(c2cnc3ccc(-c4ccc5oc(N)nc5c4)cc3n2)CC1` (centres unmarked) [Compound 134], the IC50 on PI3K γ (read-out: PI3K γ IC50) is less than 10 µM.

`C[C@@H]1CN(c2cnc3ccc(-c4ccc5oc(N)nc5c4)cc3n2)CCN1` [Compound 179]: at PI3K δ (read-out: PI3K δ IC50), the IC50 was less than 10 µM.

Take `NC(=O)[C@H]1CCCN1C(=O)c1cnc2ccc(-c3ccc4oc(N)nc4c3)cn12` [Compound 260]: on PI3K γ (read-out: PI3K γ IC50), the IC50 was less than 10 µM.

Turning to `Nc1nc2cc(-c3ccc4ncc(C(=O)N5CC[C@H](O)C5)n4c3)ccc2o1` [Compound 264], the IC50 on PI3K δ (read-out: PI3K δ IC50) is less than 10 µM.

Take `Nc1nc2cc(-c3ccc4ncc(C(=O)N5CC[C@@H](O)C5)n4c3)ccc2o1` [Compound 265]: the IC50 on PI3K δ (read-out: PI3K δ IC50) is less than 10 µM.

In the case of `Nc1nc2cc(-c3ccc4ncc(N5CC(N6CC[C@H](O)C6)C5)nc4c3)ccc2o1` [Compound 322], the IC50 at PI3K δ (read-out: PI3K δ IC50) was less than 10 µM.

Regarding `CN1CCN([C@H]2CCN(c3cnc4ccc(-c5ccc6oc(N)nc6c5)cc4n3)C2)CC1` [Compound 381], the half-inhibitory concentration (IC50) on PI3K δ (read-out: PI3K δ IC50) was less than 10 µM.

On to `C[C@H]1CN(c2cnc3ccc(-c4ccc5oc(N)nc5c4)cc3n2)CCN1` [Compound 396], for which the values for the IC50 against PI3K δ and against PI3K γ were more than 10 µM and less than 10 µM, respectively.

Consider `Cc1ncc(-c2ccc3ncc(C(=O)N4CCOCC4)n3c2)c2cn[nH]c12` [Compound 530], for which the IC50 at PI3K δ (read-out: PI3K δ IC50, in vitro) was less than 10 µM.

As for `C[C@H]1CN(c2cnc3ccc(-c4ccc5oc(N)nc5c4)nc3n2)CCN1` [Compound 552], the IC50 was less than 10 µM at PI3K δ (read-out: PI3K δ IC50, Table 4) and less than 10 µM at PI3K γ (read-out: PI3K γ IC50, Table 4).

Turning to `Nc1nc2cc(-c3ccc4ncc(-c5cccnc5)nc4n3)ccc2o1` [Compound 554], the IC50 on PI3K β is less than 10 µM.

With `CN1CCN(c2cnc3ccc(-c4ccc5oc(N)nc5c4)nc3n2)CC1` [Compound 555], the IC50 on PI3K δ (read-out: PI3K δ IC50) was less than 10 µM; at PI3K γ (read-out: PI3K γ IC50, Table 4), less than 10 µM.

On to `Nc1nc2cc(-c3ccc4ncc(N5CC(N6CCOCC6)C5)nc4n3)ccc2o1` [Compound 556], for which the IC50 is less than 10 µM at PI3K δ (read-out: PI3K δ IC50) and less than 10 µM at PI3K γ (read-out: PI3K γ IC50, Table 4).

In the case of `CS(=O)(=O)N1CCN(C2CN(c3cnc4ccc(-c5ccc6oc(N)nc6c5)nc4n3)C2)CC1` [Compound 559], the IC50 at PI3K δ (read-out: PI3K δ IC50, Table 4) is less than 10 µM.

As to `CCOC(=O)N1CC=C(c2cnc3ccc(-c4ccc5oc(N)nc5c4)nc3n2)CC1` [Compound 560], the IC50 on PI3K δ (read-out: PI3K δ IC50, Table 4) is less than 10 µM; on PI3K β it was less than 10 µM.

Turning to `C[C@H]1CN(C2CN(c3cnc4ccc(-c5ccc6oc(N)nc6c5)nc4n3)C2)CCN1` [Compound 561], the IC50 on PI3K δ (read-out: PI3K δ IC50, Table 4) is less than 10 µM; on PI3K γ (read-out: PI3K γ IC50, Table 4), less than 10 µM.

On to `Nc1nc2cc(-c3ccc4ncc(C5=CCOCC5)nc4n3)ccc2o1` [Compound 562], for which the IC50 on PI3K β is less than 10 µM.

For the molecule `C[C@@H]1CN(C2CN(c3cnc4ccc(-c5ccc6oc(N)nc6c5)nc4n3)C2)CCN1` [Compound 563], the IC50 at PI3K δ (read-out: PI3K δ IC50, Table 4) was less than 10 µM.

With `C[C@@H]1COCCN1c1cnc2ccc(-c3ccc4oc(N)nc4c3)nc2n1` [Compound 565], the IC50 is less than 10 µM at PI3K δ (read-out: PI3K δ IC50, Table 4) and less than 10 µM on PI3K β.

As to `C[C@H]1COCCN1c1cnc2ccc(-c3ccc4oc(N)nc4c3)nc2n1` [Compound 566], the IC50 on PI3K β was less than 10 µM.

Take `Nc1nc2cc(-c3ccc4ncc(-c5cccnc5)cc4n3)ccc2o1` [Compound 567]: the IC50 is less than 10 µM at PI3K δ (read-out: PI3K δ IC50, Table 4) and less than 10 µM on PI3K β.

In the case of `C[C@H]1CN(C2CN(c3cnc4ccc(-c5ccc6oc(N)nc6c5)nc4n3)C2)CCN1C` [Compound 572], the IC50 on PI3K δ (read-out: PI3K δ IC50, Table 4) is less than 10 µM.

For the molecule `CN1CCN(c2cnc3ccc(-c4ccc5oc(N)nc5c4)nc3c2)CC1` [Compound 575], the IC50 on PI3K δ (read-out: PI3K δ IC50, Table 4) was less than 10 µM.

Regarding `C[C@@H]1CN(C2CN(c3cnc4ccc(-c5ccc6oc(N)nc6c5)nc4n3)C2)CCN1C` [Compound 576], the IC50 at PI3K δ (read-out: PI3K δ IC50, Table 4) was less than 10 µM; at PI3K γ (read-out: PI3K γ IC50, Table 4), less than 10 µM.

In the case of `CCN(CC)c1cnc2ccc(-c3ccc4oc(N)nc4c3)nc2n1` [Compound 577], the IC50 at PI3K δ (read-out: PI3K δ IC50, Table 4) is less than 10 µM.

Consider `C[C@@H]1CN(c2cnc3ccc(-c4ccc5oc(N)nc5c4)nc3n2)CCN1` [Compound 578], for which the IC50 at PI3K δ (read-out: PI3K δ IC50, Table 4) was less than 10 µM.

For `C[C@@H](N)C(=O)N1CCN(c2cnc3ccc(-c4ccc5oc(N)nc5c4)nc3n2)CC1` [Compound 582], the IC50 at PI3K δ (read-out: PI3K δ IC50) and at PI3K β was less than 10 µM throughout.

As to `CC(C)N1CCN(c2cnc3ccc(-c4ccc5oc(N)nc5c4)nc3n2)CC1` [Compound 583], on PI3K δ (read-out: PI3K δ IC50, Table 4), the IC50 was less than 10 µM.

`NCC(=O)N1CCN(c2cnc3ccc(-c4ccc5oc(N)nc5c4)nc3n2)CC1` [Compound 584]: the IC50 was less than 10 µM at PI3K δ (read-out: PI3K δ IC50, Table 4) and less than 10 µM on PI3K β.

As to `CCOC(=O)N1CCN(c2cnc3ccc(-c4ccc5oc(N)nc5c4)nc3c2)CC1` [Compound 587], the IC50 on PI3K β was less than 10 µM.

Consider `Nc1nc2cc(-c3ccc4ncc(N5CCC(O)CC5)nc4n3)ccc2o1` [Compound 596], for which, at PI3K β, the IC50 is less than 10 µM.

Take `C[C@H]1CN(c2cnc3ccc(-c4ccc5oc(N)nc5c4)nc3c2)CCN1` [Compound 598]: the IC50 on PI3K δ (read-out: PI3K δ IC50) is less than 10 µM.

On to `CC1(C)CN(C2CN(c3cnc4ccc(-c5ccc6oc(N)nc6c5)nc4n3)C2)CCN1` [Compound 603], for which the IC50 at PI3K β was less than 10 µM.

As for `Nc1nc2cc(-c3ccc4ncc(N5CC(N6CCOCC6)C5)cc4n3)ccc2o1` [Compound 604], the IC50 on PI3K δ (read-out: PI3K δ IC50) and at PI3K β was less than 10 µM each time.

For `C[C@H]1CN(C2CN(c3cnc4ccc(-c5ccc6oc(N)nc6c5)nc4c3)C2)CCN1` [Compound 605], the IC50 on PI3K γ (read-out: PI3K γ IC50, Table 4) was less than 10 µM; on PI3K β, less than 10 µM.

For `CC1(C)CN(C2CN(c3cnc4ccc(-c5ccc6oc(N)nc6c5)nc4c3)C2)CCN1` [Compound 609], the IC50 on PI3K β was less than 10 µM.

Turning to `Nc1nc2cc(-c3ccc4ncc(N5CC(N6CCN(CC7CC7)CC6)C5)cc4n3)ccc2o1` [Compound 611], the IC50 was less than 10 µM at PI3K γ (read-out: PI3K γ IC50, Table 4) and less than 10 µM on PI3K β.

As to `C[C@H]1COCCN1C1CN(c2cnc3ccc(-c4ccc5oc(N)nc5c4)nc3n2)C1` [Compound 612], the IC50 is less than 10 µM on PI3K δ (read-out: PI3K δ IC50, Table 4) and less than 10 µM at PI3K γ (read-out: PI3K γ IC50, Table 4).

Consider `Nc1nc2cc(-c3ccc4ncc(N5CCC(O)CC5)cc4n3)ccc2o1` [Compound 613], for which the IC50 on PI3K δ (read-out: PI3K δ IC50, Table 4) was less than 10 µM; on PI3K β, less than 10 µM.

Regarding `Cc1nccn1C1CN(c2cnc3ccc(-c4ccc5oc(N)nc5c4)nc3c2)C1` [Compound 614], the IC50 at PI3K β is less than 10 µM.

With `CN1CCN(C2CN(c3cnc4ccc(-c5ccc6oc(N)nc6c5)nc4c3)C2)CC1=O` [Compound 615], the IC50 at PI3K β is less than 10 µM.

Regarding `Nc1nc2cc(-c3ccc4ncc(N5CC(N6CCN(CCO)CC6)C5)cc4n3)ccc2o1` [Compound 616], on PI3K β, the IC50 is less than 10 µM.

For `C[C@@H]1COCCN1C1CN(c2cnc3ccc(-c4ccc5oc(N)nc5c4)nc3c2)C1` [Compound 617], the IC50 on PI3K β was less than 10 µM.

With `C[C@H]1COCCN1C1CN(c2cnc3ccc(-c4ccc5oc(N)nc5c4)nc3c2)C1` [Compound 619], the IC50 at PI3K γ (read-out: PI3K γ IC50, Table 4) is less than 10 µM.

In the case of `Nc1nc2cc(-c3ccc4ncc(N5CC(N6CCN(C7CC7)CC6)C5)cc4n3)ccc2o1` [Compound 621], the IC50 at PI3K δ (read-out: PI3K δ IC50, Table 4) was less than 10 µM; on PI3K β it was less than 10 µM.

Turning to `CN1CCN(C2CN(c3cnc4ccc(-c5ccc6oc(N)nc6c5)nc4n3)C2)CC1` [Compound 622], on PI3K β, the IC50 was less than 10 µM.

With `CCN1CCN(C2CN(c3cnc4ccc(-c5ccc6oc(N)nc6c5)nc4c3)C2)CC1` [Compound 626], the IC50 on PI3K γ (read-out: PI3K γ IC50, Table 4) was less than 10 µM.
